What follows are molecules tested against human IRAK4 kinase domain (aa 154-460) (Homo sapiens (Human), UniProt Q9NWZ3) (assay: IRAK4 Enzymatic DELFIA Assay, Protocol B). Conditions: human IRAK4 kinase domain (aa 154-460), 0.6 mM ATP (KM); read-out: IRAK4 DELFIA Protocol B IC50.
Sequence of human IRAK4 kinase domain (aa 154-460) (Q9NWZ3 154-460): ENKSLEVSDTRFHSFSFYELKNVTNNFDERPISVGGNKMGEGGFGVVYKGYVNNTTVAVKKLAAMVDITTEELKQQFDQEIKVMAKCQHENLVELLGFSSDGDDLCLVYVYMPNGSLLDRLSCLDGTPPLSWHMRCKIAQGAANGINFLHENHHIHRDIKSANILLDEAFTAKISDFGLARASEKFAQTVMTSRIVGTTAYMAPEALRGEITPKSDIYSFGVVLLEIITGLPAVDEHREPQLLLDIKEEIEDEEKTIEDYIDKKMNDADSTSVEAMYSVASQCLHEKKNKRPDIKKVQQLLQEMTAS
Format: biochemical
Description: IRAK4 Enzymatic DELFIA Assay, Protocol B.
Work on `CC(C)Oc1cc2c(OCC3(NC(=O)CC#N)CCCC3)nccc2cc1C(N)=O` [Example 65, 1-({1-[(cyanoacetyl)amino]cyclopentyl}methoxy)-7-(propan-2-yloxy)isoquinoline-6-carboxamide] yielded an IC50 of 563 nM. In the case of `CC(C)Oc1cc2c(OC[C@H]3CCN(C(=O)CC#N)C3)nccc2cc1C(N)=O` [Example 66, 1-{[(3S)-1-(cyanoacetyl)pyrrolidin-3-yl]methoxy}-7-(propan-2-yloxy)isoquinoline-6-carboxamide], the IC50 is reported as 255 nM. For `CC(C)Oc1cc2c(OC[C@@H]3CCCN(C(=O)CC#N)C3)nccc2cc1C(N)=O` [Example 67, 1-{[(3R)-1-(cyanoacetyl)piperidin-3-yl]methoxy}-7-(propan-2-yloxy)isoquinoline-6-carboxamide], the IC50 was 1730 nM. For `CC(C)Oc1cc2c(O[C@@H]3C[C@H]4C[C@@H]3CN(C(=O)CC#N)C4)nccc2cc1C(N)=O` [Example 68, 1-{[(1R,5R,6R)-3-(cyanoacetyl)-3-azabicyclo[3.2.1]oct-6-yl]oxy}-7-(propan-2-yloxy)isoquinoline-6-carboxamide], the IC50 was 320 nM. Molecule `CC(C)Oc1cc2c(OC[C@@H]3CCN(C(=O)CC#N)C3)nccc2cc1C(N)=O` [Example 70, 1-{[(3R)-1-(cyanoacetyl)pyrrolidin-3-yl]methoxy}-7-(propan-2-yloxy)isoquinoline-6-carboxamide] has an IC50 of 423 nM. `CC(C)Oc1cc2c(OC3C[C@@H]4CN[C@H]3C4)nccc2cc1C(N)=O` (stereo partly drawn) [Example 72, 1-[(1S,4R)-2-azabicyclo[2.2.1]hept-6-yloxy]-7-(propan-2-yloxy)isoquinoline-6-carboxamide] showed an IC50 of 2620 nM. Work on `CC(C)Oc1cc2c(O[C@H]3C[C@@H]4C[C@H]3CN4C(=O)CC#N)nccc2cc1C(N)=O` [Example 74, 1-{[(1S,4S,5S)-2-(cyanoacetyl)-2-azabicyclo[2.2.1]hept-5-yl]oxy}-7-(propan-2-yloxy)isoquinoline-6-carboxamide] yielded an IC50 of 43 nM. `CC(C)Oc1cc2c(OC[C@@H]3CN(C(=O)CC#N)CCO3)nccc2cc1C(N)=O` [Example 75, 1-{[(2S)-4-(cyanoacetyl)morpholin-2-yl]methoxy}-7-(propan-2-yloxy)isoquinoline-6-carboxamide] was tested, and the IC50 was 4040 nM. For `CC(C)Oc1cc2c(OCC3(F)CCN(C(=O)CC#N)CC3)nccc2cc1C(N)=O` [Example 76, 1-{[1-(cyanoacetyl)-4-fluoropiperidin-4-yl]methoxy}-7-(propan-2-yloxy)isoquinoline-6-carboxamide], the IC50 was 1720 nM. With `CC(C)Oc1cc2c(OC[C@@]34C[C@@H]3CN(C(=O)CC#N)C4)nccc2cc1C(N)=O` [Example 77, 1-{[(1S,5S)-3-(cyanoacetyl)-3-azabicyclo[3.1.0]hex-1-yl]methoxy}-7-(propan-2-yloxy)isoquinoline-6-carboxamide] the IC50 was 468 nM. Work on `CC(C)Oc1cc2c(OC[C@H]3CN(C(=O)CC#N)CCO3)nccc2cc1C(N)=O` [Example 78, 1-{[(2R)-4-(cyanoacetyl)morpholin-2-yl]methoxy}-7-(propan-2-yloxy)isoquinoline-6-carboxamide] yielded an IC50 of 4740 nM. `CC(C)Oc1cc2c(O[C@H]3CC[C@@H]4CN(C(=O)CC#N)C[C@@H]43)nccc2cc1C(N)=O` [Example 79, 1-{[(3aR,4S,6aS)-2-(cyanoacetyl)octahydrocyclopenta[c]pyrrol-4-yl]oxy}-7-(propan-2-yloxy)isoquinoline-6-carboxamide] was tested, and the IC50 was 457 nM. `CC[C@H]1CN(C(=O)CC#N)C[C@@H]1COc1nccc2cc(C(N)=O)c(OC(C)C)cc12` [Example 80, 1-{[(3R,4R)-1-(cyanoacetyl)-4-ethylpyrrolidin-3-yl]methoxy}-7-(propan-2-yloxy)isoquinoline-6-carboxamide] showed an IC50 of 333 nM. `CC(C)Oc1cc2c(O[C@H]3C[C@@H]4C[C@H]3CN(C(=O)CC#N)C4)nccc2cc1C(N)=O` [Example 81, 1-{[(1S,5S,6S)-3-(cyanoacetyl)-3-azabicyclo[3.2.1]oct-6-yl]oxy}-7-(propan-2-yloxy)isoquinoline-6-carboxamide] gave an IC50 of 479 nM. `CC(C)Oc1cc2c(OCC3(C)CCN(C(=O)CC#N)C3)nccc2cc1C(N)=O` (stereo not drawn) [Example 82, 1-{[1-(cyanoacetyl)-3-methylpyrrolidin-3-yl]methoxy}-7-(propan-2-yloxy)isoquinoline-6-carboxamide] gave an IC50 of 969 nM. With `CC(C)Oc1cc2c(OC[C@@H]3COCCN3C(=O)CC#N)nccc2cc1C(N)=O` [Example 83, 1-{[(3S)-4-(cyanoacetyl)morpholin-3-yl]methoxy}-7-(propan-2-yloxy)isoquinoline-6-carboxamide] the IC50 was 175 nM. With `CO[C@H]1CN(C(=O)CC#N)C[C@@H]1COc1nccc2cc(C(N)=O)c(OC(C)C)cc12` [Example 84, 1-{[(3R,4R)-1-(cyanoacetyl)-4-methoxypyrrolidin-3-yl]methoxy}-7-(propan-2-yloxy)isoquinoline-6-carboxamide] the IC50 was 534 nM. In the case of `CC(C)Oc1cc2c(OC[C@H]3CN(C(=O)CC#N)C[C@@H]3C)nccc2cc1C(N)=O` [Example 85, 1-{[(3R,4R)-1-(cyanoacetyl)-4-methylpyrrolidin-3-yl]methoxy}-7-(propan-2-yloxy)isoquinoline-6-carboxamide], the IC50 is reported as 610 nM. Molecule `CC(C)Oc1cc2c(OCC3(C)CCN(C(=O)CC#N)CC3)nccc2cc1C(N)=O` [Example 86, 1-{[1-(cyanoacetyl)-4-methylpiperidin-4-yl]methoxy}-7-(propan-2-yloxy)isoquinoline-6-carboxamide] has an IC50 of 216 nM. For `CC(C)Oc1cc2c(OC[C@@H]3[C@H]4CN(C(=O)CC#N)C[C@@H]34)ccnc2cc1C(N)=O` [Example 87, 4-{[(1R,5S,6r)-3-(cyanoacetyl)-3-azabicyclo[3.1.0]hex-6-yl]methoxy}-6-(propan-2-yloxy)quinoline-7-carboxamide], the IC50 was 2620 nM. `CC(C)Oc1cc2c(OC[C@H]3CN(C(=O)CC#N)C[C@@H]3C)ccnc2cc1C(N)=O` [Example 88, 4-{[(3R,4R)-1-(cyanoacetyl)-4-methylpyrrolidin-3-yl]methoxy}-6-(propan-2-yloxy)quinoline-7-carboxamide] gave an IC50 of 292 nM. With `CC(C)Oc1cc2c(O[C@@H]3C[C@H]4C[C@@H]3CN(C(=O)CC#N)C4)ccnc2cc1C(N)=O` [Example 89, 4-{[(1R,5R,6R)-3-(cyanoacetyl)-3-azabicyclo[3.2.1]oct-6-yl]oxy}-6-(propan-2-yloxy)quinoline-7-carboxamide] the IC50 was 395 nM. In the case of `CC(C)Oc1cc2c(OC[C@@]34C[C@@H]3CN(C(=O)CC#N)C4)ccnc2cc1C(N)=O` [Example 90, 4-{[(1S,5S)-3-(cyanoacetyl)-3-azabicyclo[3.1.0]hex-1-yl]methoxy}-6-(propan-2-yloxy)quinoline-7-carboxamide], the IC50 is reported as 438 nM. With `CC(C)Oc1cc2c(OCC3(C)CCN(C(=O)CC#N)CC3)ccnc2cc1C(N)=O` [Example 91, 4-{[1-(cyanoacetyl)-4-methylpiperidin-4-yl]methoxy}-6-(propan-2-yloxy)quinoline-7-carboxamide] the IC50 was 489 nM. `CC(C)Oc1cc2c(OC[C@H]3CCCN(C(=O)CC#N)C3)ccnc2cc1C(N)=O` [Example 93, 4-{[(3S)-1-(cyanoacetyl)piperidin-3-yl]methoxy}-6-(propan-2-yloxy)quinoline-7-carboxamide] was tested, and the IC50 was 1520 nM. `CC(C)Oc1cc2c(OC[C@@]34C[C@@H]3CN(C(=O)CC#N)C4)ccnc2cc1C(N)=O` [Example 94, 4-{[(1S,5S)-3-(cyanoacetyl)-3-azabicyclo[3.1.0]hex-1-yl]methoxy}-6-(propan-2-yloxy)quinoline-7-carboxamide] was tested, and the IC50 was 526 nM. In the case of `CC(C)Oc1cc2c(OCC3(F)CCN(C(=O)CC#N)CC3)ccnc2cc1C(N)=O` [Example 95, 4-{[1-(cyanoacetyl)-4-fluoropiperidin-4-yl]methoxy}-6-(propan-2-yloxy)quinoline-7-carboxamide], the IC50 is reported as 3170 nM. In the case of `CO[C@H]1CN(C(=O)CC#N)C[C@@H]1COc1ccnc2cc(C(N)=O)c(OC(C)C)cc12` [Example 96, 4-{[(3R,4R)-1-(cyanoacetyl)-4-methoxypyrrolidin-3-yl]methoxy}-6-(propan-2-yloxy)quinoline-7-carboxamide], the IC50 is reported as 301 nM. In the case of `CC(C)Oc1cc2c(OC[C@@H]3CCCN(C(=O)CC#N)C3)ccnc2cc1C(N)=O` [Example 97, 4-{[(3R)-1-(cyanoacetyl)piperidin-3-yl]methoxy}-6-(propan-2-yloxy)quinoline-7-carboxamide], the IC50 is reported as 2740 nM. In the case of `CC(C)Oc1cc2c(OC[C@@H]3CN(C(=O)CC#N)CCO3)ccnc2cc1C(N)=O` [Example 98, 4-{[(2S)-4-(cyanoacetyl)morpholin-2-yl]methoxy}-6-(propan-2-yloxy)quinoline-7-carboxamide], the IC50 is reported as 575 nM. Molecule `CC(C)Oc1cc2c(OCC3CCCCN3C(=O)CC#N)ccnc2cc1C(N)=O` (stereo not drawn) [Example 99, 4-{[1-(cyanoacetyl)piperidin-2-yl]methoxy}-6-(propan-2-yloxy)quinoline-7-carboxamide] has an IC50 of 524 nM. `CC(C)Oc1cc2c(OCC3CCN(C(=O)CC#N)CC3)ccnc2cc1C(N)=O` [Example 100, 4-{[1-(cyanoacetyl)piperidin-4-yl]methoxy}-6-(propan-2-yloxy)quinoline-7-carboxamide] was tested, and the IC50 was 482 nM. `CC(C)Oc1cc2c(O[C@H]3C[C@@H]4C[C@H]3CN4)nccc2cc1C(N)=O` [Example 101, 1-[(1S,4S,5S)-2-azabicyclo[2.2.1]hept-5-yloxy]-7-(propan-2-yloxy)isoquinoline-6-carboxamide] showed an IC50 of 1180 nM. Work on `CC(C)Oc1cc2c(OC[C@@H]3CC(C)C(=O)N3)nccc2cc1C(N)=O` (stereo partly drawn) [Example 107, 1-{[(2S)-4-methyl-5-oxopyrrolidin-2-yl]methoxy}-7-(propan-2-yloxy)isoquinoline-6-carboxamide] yielded an IC50 of 16 nM. Work on `CC(C)Oc1cc2c(O[C@@H]3C[C@@H]4CN[C@H]3C4)nccc2cc1C(N)=O` [Example 108, 1-[(1S,4R,6R)-2-azabicyclo[2.2.1]hept-6-yloxy]-7-(propan-2-yloxy)isoquinoline-6-carboxamide] yielded an IC50 of 1870 nM. In the case of `CC(C)Oc1cc2c(O[C@H]3C[C@@H]4CN[C@H]3C4)nccc2cc1C(N)=O` [Example 109, 1-[(1S,4R,6S)-2-azabicyclo[2.2.1]hept-6-yloxy]-7-(propan-2-yloxy)isoquinoline-6-carboxamide], the IC50 is reported as 1910 nM.
